Reference: EP4635500A1, “THERAPEUTIC AGENT FOR BACTERIAL INFECTION” (Sumitomo Pharma Co., Ltd., priority 2022, dated 2024)
In brackets after ≈: the same amount, converted by molar mass. Like-named read-outs stand apart in the source and are kept apart here.

Test system: Enterobacterales
Experiment: MIC, broth microdilution, CDC/FDA Antibiotic Resistance Isolate Bank (Example 7, Tables 8, 11, 12)
Type: cell-based

For `CN(C)c1cc(NC(=O)CNC(C)(C)C)c(O)c2c1C[C@H]1C[C@H]3[C@H](N(C)C)C(=O)C(C(N)=O)=C(O)[C@@]3(O)C(=O)C1=C2O` [Tigecyeline], the MIC (Citrobacter freundii, KUB No. 5654, AR Bank # 157, read-out: MIC) was 0.5 µg/mL (≈ 0.854 µM), the MIC (Enterobacter cloacae, Enterobacter cloacae KUB No. 5792, AR Bank #448) was 1 µg/mL (≈ 1.71 µM) and the MIC (Enterobacter cloacae, Enterobacter cloacae KUB No. 5807, AR Bank #501) was 1 µg/mL (≈ 1.71 µM). The MIC (Enterobacter cloacae, Enterobacter cloacae KUB No. 5808, AR Bank #502) was 4 µg/mL (≈ 6.83 µM), the MIC (Enterobacter cloacae, Enterobacter cloacae group, KUB No. 5629, AR Bank # 132) was 0.5 µg/mL (≈ 0.854 µM) and the MIC (Enterobacter cloacae, KUB No. 5529, AR Bank# 32) was 1 µg/mL (≈ 1.71 µM). For the same molecule, the MIC (Enterobacter cloacae, KUB No. 5535, AR Bank# 38) was 4 µg/mL (≈ 6.83 µM), the MIC (Enterobacter cloacae, KUB No. 5547, AR Bank# 50) was 0.25 µg/mL (≈ 0.427 µM) and the MIC (Enterobacter cloacae, KUB No. 5550, AR Bank# 53) was 1 µg/mL (≈ 1.71 µM). The MIC (Enterobacter cloacae, KUB No. 5557, AR Bank# 60) was 0.25 µg/mL (≈ 0.427 µM), the MIC (Enterobacter cloacae, KUB No. 5562, AR Bank # 65) was 0.5 µg/mL (≈ 0.854 µM) and the MIC (Enterobacter cloacae, KUB No. 5569, AR Bank # 72) was 2 µg/mL (≈ 3.41 µM). The MIC (Enterobacter cloacae, KUB No. 5570, AR Bank # 73) was 1 µg/mL (≈ 1.71 µM), the MIC (Enterobacter cloacae, KUB No. 5590, AR Bank # 93) was 0.5 µg/mL (≈ 0.854 µM) and the MIC (Enterobacter cloaccae, KUB No. 5651, AR Bank # 154) was 0.5 µg/mL (≈ 0.854 µM). For the same molecule, the MIC (Enterobacter clooreae, KUB No. 5633, AR Bank # 136) was 2 µg/mL (≈ 3.41 µM), the MIC (Escherichia coli, Escherichia coli KUB No. 5783, AR Bank #437) was 1 µg/mL (≈ 1.71 µM) and the MIC (Escherichia coli, Escherichia coli KUB No. 5794, AR Bank #450) was 0.5 µg/mL (≈ 0.854 µM). For the same molecule, the MIC (Escherichia coli, Escherichia coli KUB No. 5795, AR Bank #451) was 0.5 µg/mL (≈ 0.854 µM), the MIC (Escherichia coli, Escherichia coli KUB No. 5796, AR Bank #452) was 0.5 µg/mL (≈ 0.854 µM) and the MIC (Escherichia coli, Escherichia coli KUB No. 5803, AR Bank #861) was 0.25 µg/mL (≈ 0.427 µM). It also gave an MIC (Escherichia coli, KUB No. 5558, AR Bank # 61) of 0.25 µg/mL (≈ 0.427 µM), an MIC (Escherichia coli, KUB No. 5564, AR Bank # 67) of 0.25 µg/mL (≈ 0.427 µM) and an MIC (Escherichia coli, KUB No. 5566, AR Bank # 69) of 0.25 µg/mL (≈ 0.427 µM). It also gave an MIC (Escherichia coli, KUB No. 5574, AR Bank # 77) of 0.12 µg/mL (≈ 0.205 µM), an MIC (Escherichia coli, KUB No. 5578, AR Bank # 81) of 0.12 µg/mL (≈ 0.205 µM) and an MIC (Escherichia coli, KUB No. 5581, AR Bank # 84) of 0.12 µg/mL (≈ 0.205 µM). The MIC (Escherichia coli, KUB No. 5582, AR Bank # 85) was 0.25 µg/mL (≈ 0.427 µM), the MIC (Escherichia coli, KUB No. 5583, AR Bank # 86) was 0.5 µg/mL (≈ 0.854 µM) and the MIC (Escherichia coli, KUB No. 5586, AR Bank # 89) was 0.25 µg/mL (≈ 0.427 µM). For the same molecule, the MIC (Escherichia coli, KUB No. 5601, AR Bank # 104) was 0.12 µg/mL (≈ 0.205 µM), the MIC (Escherichia coli, KUB No. 5611, AR Bank # 114) was 0.12 µg/mL (≈ 0.205 µM) and the MIC (Escherichia coli, KUB No. 5615, AR Bank # 118) was 0.12 µg/mL (≈ 0.205 µM). It also gave an MIC (Escherichia coli, KUB No. 5616, AR Bank # 119) of 0.5 µg/mL (≈ 0.854 µM), an MIC (Escherichia coli, KUB No. 5625, AR Bank # 128) of 0.12 µg/mL (≈ 0.205 µM) and an MIC (Escherichia coli, KUB No. 5634, AR Bank # 137) of 0.5 µg/mL (≈ 0.854 µM). The MIC (Escherichia coli, KUB No. 5646, AR Bank # 149) was 0.25 µg/mL (≈ 0.427 µM), the MIC (Escherichia coli, KUB No. 5647, AR Bank # 150) was 0.25 µg/mL (≈ 0.427 µM) and the MIC (Escherichia coli, KUB No. 5648, AR Bank # 151) was 0.25 µg/mL (≈ 0.427 µM). The MIC (Escherichia coli, KUB No. 5659, AR Bank # 162) was 0.5 µg/mL (≈ 0.854 µM), the MIC (Klebsiella aerogenes, Enterobacter aerogenes, KUB No. 5559, AR Bank # 62) was 2 µg/mL (≈ 3.41 µM) and the MIC (Klebsiella aerogenes, Enterobacter aerogenes, KUB No. 5571, AR Bank # 74) was 0.25 µg/mL (≈ 0.427 µM). It also gave an MIC (Klebsiella aerogenes, Enterobacter aerogenes, KUB No. 5658, AR Bank # 161) of 1 µg/mL (≈ 1.71 µM), an MIC (Klebsiella oxytoca, KUB No. 5568, AR Bank # 71) of 1 µg/mL (≈ 1.71 µM) and an MIC (Klebsiella oxytoca, KUB No. 5644, AR Bank # 147) of 0.5 µg/mL (≈ 0.854 µM). For the same molecule, the MIC (Klebsiella ozaenae, KUB No. 5548, AR Bank# 51) was 1 µg/mL (≈ 1.71 µM), the MIC (Klebsiella ozaenae, KUB No. 5593, AR Bank # 96) was 0.5 µg/mL (≈ 0.854 µM) and the MIC (Klebsiella pneumoniae, KUB No. 55, AR Bank# 47) was 0.5 µg/mL (≈ 0.854 µM). It also gave an MIC (Klebsiella pneumoniae, KUB No. 5531, AR Bank# 34) of 0.5 µg/mL (≈ 0.854 µM), an MIC (Klebsiella pneumoniae, KUB No. 5536, AR Bank# 39) of 1 µg/mL (≈ 1.71 µM) and an MIC (Klebsiella pneumoniae, KUB No. 5537, AR Bank# 40) of 2 µg/mL (≈ 3.41 µM). For the same molecule, the MIC (Klebsiella pneumoniae, KUB No. 5538, AR Bank# 41) was 1 µg/mL (≈ 1.71 µM), the MIC (Klebsiella pneumoniae, KUB No. 5540, AR Bank# 43) was 0.5 µg/mL (≈ 0.854 µM) and the MIC (Klebsiella pneumoniae, KUB No. 5541, AR Bank# 44) was 0.5 µg/mL (≈ 0.854 µM). It also gave an MIC (Klebsiella pneumoniae, KUB No. 5543, AR Bank# 46) of 2 µg/mL (≈ 3.41 µM), an MIC (Klebsiella pneumoniae, KUB No. 5546, AR Bank# 49) of 4 µg/mL (≈ 6.83 µM) and an MIC (Klebsiella pneumoniae, KUB No. 5563, AR Bank # 66) of 2 µg/mL (≈ 3.41 µM). For the same molecule, the MIC (Klebsiella pneumoniae, KUB No. 5565, AR Bank # 68) was 2 µg/mL (≈ 3.41 µM), the MIC (Klebsiella pneumoniae, KUB No. 5572, AR Bank # 75) was 2 µg/mL (≈ 3.41 µM) and the MIC (Klebsiella pneumoniae, KUB No. 5573, AR Bank # 76) was 0.25 µg/mL (≈ 0.427 µM).
